The assay relates to Immature rats. The experiment in a line: In vivo uterotropic activity. Particulars: 0.2 and 2 mg/kg for three days (S.C.). As for the experimental part:
Immature rats were treated with doses of 0.2 and 2 mg/kg 5,7,9-estratriene-3β,17β-diol for three days (S.C.) as well as additional groups (n=6) of rats treated with 0.5 µg ethinyl estradiol and vehicle as positive and negative controls, respectively.

Each structure is given as a SMILES string.

Regarding `C[C@]12CCc3c(ccc4c3CC[C@H](O)C4)[C@@H]1CC[C@@H]2O` [5,7,9-estratriene-3β,17β-diol], the uterine weight result is listed as “uterine weight gains at both concentrations”.

Values taken from patent EP0983294B1, “B-RING E[…] SULPHATES” (Wyeth, priority 1997, dated 1998).
